Drawing on DBAASP, this text covers MIC for 10 molecules.

Converted amounts (≈) assume the structure as drawn.

What all share (experiment): ≥ marks a high value that may be exact or a test limit, other limits are often not marked, values filed in µg/mL are converted to µM
In assay [1] the test system is Klebsiella pneumoniae ATCC 27736.
The test system of assay [2] is Pseudomonas aeruginosa ATCC BAA-427.
Assay [3] concerns Bacillus subtilis ATCC 6633.
Assay [4] relates to Staphylococcus aureus Newman.
The subject of assay [5] is Staphylococcus aureus SA113.
Assay [6] has as its system Cronobacter sakazakii ATCC BAA-894.
The test system of assay [7] is Klebsiella pneumoniae NCIMB 13218.
For assay [8], the system named is Pseudomonas fluorescens NCIMB 9046.
Assay [9] has as its system Escherichia coli NCIMB 11843.
For assay [10], the system named is Cronobacter sakazakii DSM 4485.
The test system of assay [11] is Staphylococcus aureus RN4220.
Assay [12] deals with Staphylococcus aureus RF122.
The subject of assay [13] is Salmonella enterica subsp. enterica serovar Typhimurium LT2.
The subject of assay [14] is Staphylococcus aureus NCTC 8325-4.
For assay [15], the system named is Cronobacter sakazakii DPC 6440.
The subject of assay [16] is Cronobacter muytjensii ATCC 51329.
In assay [17] the test system is Pseudomonas aeruginosa PAO1.
In assay [18] the test system is Pseudomonas aeruginosa 919.
For assay [19], the system named is Pseudomonas aeruginosa 910.
For assay [20], the system named is Pseudomonas aeruginosa 253.
Assay [21] relates to Staphylococcus xylosus.
Assay [22] concerns Escherichia coli DH5alpha.
The subject of assay [23] is Escherichia coli ATCC 25922.
For assay [24], the system named is Staphylococcus aureus ATCC 29213.
The subject of assay [25] is Candida albicans ATCC 37092.
Assay [26] relates to Pseudomonas aeruginosa ATCC 27853.
The subject of assay [27] is Escherichia coli HB101.
The test system of assay [28] is Staphylococcus aureus ATCC 9144.
In assay [29] the test system is Corynebacterium glutamicum ATCC 13032.

Regarding `CC[C@H](C)[C@H](NC(=O)CNC(=O)[C@H](CCCN=C(N)N)NC(=O)[C@H](C)NC(=O)[C@H](Cc1ccccc1)NC(=O)[C@H](Cc1cnc[nH]1)NC(=O)[C@H](Cc1cnc[nH]1)NC(=O)[C@H](Cc1ccccc1)NC(=O)[C@@H](N)Cc1ccccc1)C(=O)N[C@H](C(=O)N[C@@H](Cc1cnc[nH]1)C(=O)N[C@H](C(=O)NCC(=O)N[C@@H](CCCCN)C(=O)N[C@H](C(=O)N[C@H](C(=O)N[C@@H](Cc1cnc[nH]1)C(=O)N[C@@H](CCCN=C(N)N)C(=O)N[C@@H](CC(C)C)C(=O)N[C@H](C(=O)N[C@H](C(=O)NCC(N)=O)[C@@H](C)O)C(C)C)[C@@H](C)CC)[C@@H](C)O)C(C)C)C(C)C` [FFHHFARGIVHVGKTIHRLVTG], the MIC (commonly the lowest concentration that inhibits growth of the organism) in [1] was 12 µM (≈ 30.3 µg/mL); in [2] it was 24 µM (≈ 60.7 µg/mL); in assay [3], 16 µM (≈ 40.5 µg/mL).
Regarding `CC[C@H](C)[C@H](N)C(=O)N[C@@H](CCCCN)C(=O)N[C@@H](Cc1cnc[nH]1)C(=O)N[C@@H](CCC(N)=O)C(=O)NCC(=O)N[C@@H](CC(C)C)C(=O)N1CCC[C@H]1C(=O)N[C@@H](CCC(N)=O)C(=O)N[C@@H](C)C(=O)O` [IKHQGLPQA], the MIC in [4] is no less than 2500 µM; in assay [5], no less than 2500 µM; in assay [6], no less than 1250 µM; in assay [7], no less than 2500 µM; in assay [8], no less than 2500 µM; in assay [9] it was no less than 2500 µM. For the same molecule, the MIC in [10] is no less than 2500 µM; in assay [11], no less than 625 µM; in assay [12] it was no less than 625 µM; in assay [13] it was no less than 2500 µM; in [14], no less than 2500 µM; in assay [15] it was no less than 625 µM. This molecule also displayed an MIC in assay [16] of no less than 2500 µM.
As for `CC[C@H](C)[C@H](N)C(=O)N[C@@H](CCCCN)C(=O)N[C@@H](Cc1cnc[nH]1)C(=O)N[C@@H](CCC(N)=O)C(=O)NCC(=O)N[C@@H](CCCN=C(N)N)C(=O)N1CCC[C@H]1C(=O)N[C@@H](CCC(N)=O)C(=O)N[C@@H](CCC(=O)O)C(=O)O` [IKHQGRPQE], the MIC in assay [4], in assay [5], in [6], in assay [7], in assay [8] and in assay [9] was no less than 2500 µM throughout. In addition, the MIC in assay [10], in assay [11], in assay [12], in [13], in assay [14] and in assay [15] was no less than 2500 µM throughout. This molecule also gave an MIC in assay [16] of no less than 2500 µM.
Take `CC[C@H](C)[C@H](N)C(=O)N[C@@H](CC(C)C)C(=O)N[C@@H](CCCCN)C(=O)N[C@@H](Cc1c[nH]c2ccccc12)C(=O)N[C@@H](CCCCN)C(=O)N[C@@H](CCSC)C(=O)N[C@@H](Cc1ccccc1)C(=O)N[C@@H](CCCCN)C(=O)N[C@@H](Cc1c[nH]c2ccccc12)C(=O)N[C@@H](CCCCN)C(=O)N[C@@H](Cc1c[nH]c2ccccc12)C(=O)N[C@@H](Cc1ccccc1)C(=O)N[C@@H](CCCN=C(N)N)C(N)=O` [ILKWKMFKWKWFR]: the MIC is 2 µM (≈ 3.79 µg/mL) in [17], 16 µM (≈ 30.3 µg/mL) in assay [18], 4 µM (≈ 7.59 µg/mL) in assay [19] and 16 µM (≈ 30.3 µg/mL) in assay [20].
`NCCCC[C@H](NC(=O)[C@H](CCCN=C(N)N)NC(=O)[C@H](CCCCN)NC(=O)[C@H](CCCCN)NC(=O)[C@H](CCCN=C(N)N)NC(=O)[C@@H](N)CCCCN)C(=O)O` [KRKKRK]: the MIC in [21] was 16 µM (≈ 13.5 µg/mL); in assay [22] it was no less than 64 µM.
For the molecule `CC(C)C[C@H](NC(=O)[C@H](CCCN=C(N)N)NC(=O)[C@@H]1CCCN1C(=O)[C@@H]1CCCN1C(=O)[C@H](CCCN=C(N)N)NC(=O)[C@@H]1CCCN1)C(=O)N1CCC[C@H]1C(=O)N[C@@H](CCCN=C(N)N)C(=O)N1CCC[C@H]1C(=O)N[C@@H](CCCN=C(N)N)C(=O)N1CCC[C@H]1C(=O)N[C@@H](CCCN=C(N)N)C(=O)N1CCC[C@H]1C(=O)N[C@@H](CC(C)C)C(=O)N1CCC[C@H]1C(=O)N[C@@H](Cc1ccccc1)C(=O)N1CCC[C@H]1C(=O)N[C@@H](CCCN=C(N)N)C(=O)N1CCC[C@H]1C(=O)NCC(=O)O` [PRPPRLPRPRPRPLPFPRPG], the figures for the MIC in assay [23], in assay [24] and in [25] were 18.1 µM (≈ 42.7 µg/mL), greater than 500 µM and 17.6 µM (≈ 41.5 µg/mL), respectively.
Turning to `CC[C@H](C)[C@H](NC(=O)[C@H](CC(C)C)NC(=O)[C@@H](NC(=O)[C@H](CC(C)C)NC(=O)[C@@H](NC(=O)[C@H](CCCCN)NC(=O)[C@@H](N)CCCN=C(N)N)[C@@H](C)CC)[C@@H](C)CC)C(=O)N[C@@H](CCCCN)C(=O)N[C@@H](CCCN=C(N)N)C(=O)N[C@@H](CCCCN)C(=O)O` [RKILILIKRK], the MIC in assay [21] stood at 4 µM (≈ 5.12 µg/mL); in [22] it was 16 µM (≈ 20.5 µg/mL).
As to `CC[C@H](C)[C@H](NC(=O)[C@@H](NC(=O)[C@H](CCCN=C(N)N)NC(=O)[C@H](Cc1c[nH]c2ccccc12)NC(=O)[C@H](CCCN=C(N)N)NC(=O)[C@@H](N)CCCN=C(N)N)C(C)C)C(=O)N[C@H](C(=O)N[C@@H](CCCCN)C(=O)N[C@@H](Cc1c[nH]c2ccccc12)C(N)=O)C(C)C` [RRWRVIVKW], the MIC in assay [17] was 4 µM (≈ 5.19 µg/mL); in assay [18], 4 µM (≈ 5.19 µg/mL); in [19], 4 µM (≈ 5.19 µg/mL); in assay [20], 8 µM (≈ 10.4 µg/mL).
With `CC[C@H](C)[C@H](NC(=O)[C@@H]1CCCN1C(=O)[C@H](CCCCN)NC(=O)[C@@H]1CCCN1C(=O)[C@H](CCCN=C(N)N)NC(=O)CNC(=O)[C@@H]1CCCN1C(=O)[C@H](Cc1ccccc1)NC(=O)[C@@H]1CCCN1C(=O)[C@H](CCCN=C(N)N)NC(=O)[C@@H]1CCCN1C(=O)[C@H](CCCN=C(N)N)NC(=O)CNC(=O)[C@@H]1CCCN1C(=O)[C@H](CO)NC(=O)[C@@H]1CCCN1C(=O)[C@H](Cc1c[nH]c2ccccc12)NC(=O)[C@H](CCCN=C(N)N)NC(=O)[C@@H](N)CO)C(=O)N[C@@H](Cc1ccccc1)C(=O)O` [SRWPSPGRPRPFPGRPKPIF], the MIC in assay [26] is greater than 100 µM; in [23], greater than 100 µM; in assay [27], no less than 35.4 µM; in [28], no less than 100 µM; in assay [29], 17.7 µM (≈ 41.2 µg/mL).
Take `CC(C)C[C@H](NC(=O)[C@H](CC(C)C)NC(=O)[C@H](CC(N)=O)NC(=O)[C@H](CC(N)=O)NC(=O)[C@H](CC(C)C)NC(=O)[C@@H](N)C(C)C)C(=O)N[C@@H](CCCN=C(N)N)C(=O)O` [VLNNLLR]: the MIC in assay [4] was no less than 1250 µM; in assay [26], 64 µM (≈ 53.8 µg/mL); in [5], no less than 312 µM; in assay [6], no less than 1250 µM; in assay [7], no less than 1250 µM; in [8], no less than 2500 µM. Also, the MIC in assay [9] is no less than 2500 µM; in assay [10], no less than 2500 µM; in [11] it was no less than 1250 µM; in [12] it was no less than 1250 µM; in [13] it was no less than 1250 µM; in assay [14], no less than 312 µM. For the same molecule, the MIC in [15] was no less than 625 µM; in assay [16], no less than 1250 µM.
